{
  "source": "patent US12121514B2",
  "about": "“Nonselective metabotropic glutamate receptor activators for treatment of attention deficit disorder and 22Q syndrome” (THE CHILDREN'S HOSPITAL OF PHILADELPHIA, priority 2015, dated 2024)",
  "origin": "cited, not measured here",
  "key": {"[1]": {"tested_on": "group I and group II/III mGluRs", "conditions": "in vitro studies; cited from earlier work"}, "[2]": {"tested_on": "adenylate cyclase activity through group I, II and III mGluRs", "conditions": "cited from earlier work"}, "pediatric ADHD subjects": {"tested_on": "pediatric ADHD subjects", "conditions": "cited from earlier work"}},
  "data": [
    {"smiles": "O=C1CC[C@H](C(=O)N2CCCCC2)N1", "note": "[Fasoracetam, fasoracetam]", "values": [
      {"measurement": "stimulation of mGluRs", "setting": "[1]", "result": "can stimulate both group I and group II/III mGluRs"},
      {"measurement": "adenylate cyclase activity through group I mGluRs", "setting": "[2]", "result": "may stimulate adenylate cyclase activity"},
      {"measurement": "adenylate cyclase activity through group II and III mGluRs", "setting": "[2]", "result": "may also inhibit adenylate cyclase activity"}
    ]},
    {"smiles": "NC(=O)CN1CCCC1=O", "note": "[piracetam]", "values": [
      {"measurement": "ADHD symptoms compared to a placebo control", "setting": "pediatric ADHD subjects", "result": "increase ADHD symptoms"}
    ]}
  ]
}
